From ChEMBL document CHEMBL1201862, “PubChem BioAssay data set” (2004)
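In this assay, cells in 96-well plates receive the compound at five concentrations for 48 hours. Endpoints are linearly interpolated between the surrounding concentrations. GI50 is the concentration that inhibits growth by half.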 Active and inactive are the calls of the source. No stated cut-off is given here; in the data, active = GI50 up to about 1.1 µM and inactive = higher.

Assays:
Assay in all cases: inhibition of tumour cell growth, NCI panel, 48 h
K562 = tested on: K562
M14 = tested on: M14
PC-3 = tested on: PC-3
HT-29 = tested on: HT-29
UO-31 = tested on: UO-31
OVCAR-4 = tested on: OVCAR-4
NCI-H226 = tested on: NCI-H226
SR = tested on: SR
MDA-N = tested on: MDA-N
SF-539 = tested on: SF-539
SN12C = tested on: SN12C
HCT-116 = tested on: HCT-116
IGROV-1 = tested on: IGROV-1
HOP-92 = tested on: HOP-92
MCF7 = tested on: MCF7
SK-MEL-28 = tested on: SK-MEL-28
HL-60 = tested on: HL-60
OVCAR-5 = tested on: OVCAR-5
NCI-H522 = tested on: NCI-H522
TK-10 = tested on: TK-10
HOP-62 = tested on: HOP-62
SNB-75 = tested on: SNB-75
HCC 2998 = tested on: HCC 2998
SK-OV-3 = tested on: SK-OV-3
Hs-578T = tested on: Hs-578T
MOLT-4 = tested on: MOLT-4
MDA-MB-435 = tested on: MDA-MB-435
ACHN = tested on: ACHN
U-251 = tested on: U-251
NCI-H460 = tested on: NCI-H460
NCI-H23 = tested on: NCI-H23
BT-549 = tested on: BT-549
Malme-3M = tested on: Malme-3M
KM12 = tested on: KM12
OVCAR-3 = tested on: OVCAR-3
786-0 = tested on: 786-0
DU-145 = tested on: DU-145
NCI/ADR-RES = tested on: NCI/ADR-RES
LOX IMVI = tested on: LOX IMVI
SF-268 = tested on: SF-268
OVCAR-8 = tested on: OVCAR-8
SK-MEL-2 = tested on: SK-MEL-2
RXF 393 = tested on: RXF 393
RPMI-8226 = tested on: RPMI-8226
SK-MEL-5 = tested on: SK-MEL-5
SNB-19 = tested on: SNB-19
SF-295 = tested on: SF-295
SW-620 = tested on: SW-620
HCT-15 = tested on: HCT-15
CAKI-1 = tested on: CAKI-1
MDA-MB-231 = tested on: MDA-MB-231
COLO 205 = tested on: COLO 205
A549 = tested on: A549
EKVX = tested on: EKVX
CCRF-CEM = tested on: CCRF-CEM
UACC-62 = tested on: UACC-62
UACC-257 = tested on: UACC-257

SMILES: O=[N+]([O-])c1ccc2c(/N=N/c3c(O)ccc4ccccc34)c(O)cc(S(=O)(=O)O)c2c1
- GI50 (K562): 9.16 µM (inactive)
- GI50 (M14): 4.07 µM (inactive)
- GI50 (PC-3): 6.98 µM (inactive)
- GI50 (HT-29): 25.4 µM (inactive)
- GI50 (UO-31): 2.45 µM (inactive)
- GI50 (OVCAR-4): 35.2 µM (inactive)
- GI50 (NCI-H226): 17.5 µM (inactive)
- GI50 (SR): 26.2 µM (inactive)
- GI50 (MDA-N): 15.5 µM (inactive)
- GI50 (SF-539): 16.5 µM (inactive)
- GI50 (SN12C): 25.6 µM (inactive)
- GI50 (HCT-116): 14.4 µM (inactive)
- GI50 (IGROV-1): 4.89 µM (inactive)
- GI50 (HOP-92): 16.6 µM (inactive)
- GI50 (MCF7): 49.9 µM (inactive)
- GI50 (SK-MEL-28): 10.1 µM (inactive)
- GI50 (HL-60): 1.09 µM (active)
- GI50 (OVCAR-5): 8.34 µM (inactive)
- GI50 (NCI-H522): 4.76 µM (inactive)
- GI50 (TK-10): 37.1 µM (inactive)
- GI50 (HOP-62): 6.73 µM (inactive)
- GI50 (SNB-75): 21.9 µM (inactive)
- GI50 (HCC 2998): 63.1 µM (inactive)
- GI50 (SK-OV-3): 36.4 µM (inactive)
- GI50 (Hs-578T): > 50 µM (inactive)
- GI50 (MOLT-4): 1.39 µM (inactive)
- GI50 (MDA-MB-435): 7.98 µM (inactive)
- GI50 (ACHN): 4.86 µM (inactive)
- GI50 (U-251): 3.45 µM (inactive)
- GI50 (NCI-H460): 44.4 µM (inactive)
- GI50 (NCI-H23): 20.9 µM (inactive)
- GI50 (BT-549): 26.9 µM (inactive)
- GI50 (Malme-3M): 4.06 µM (inactive)
- GI50 (KM12): 24.2 µM (inactive)
- GI50 (OVCAR-3): 1.69 µM (inactive)
- GI50 (786-0): 11.7 µM (inactive)
- GI50 (DU-145): 36.1 µM (inactive)
- GI50 (NCI/ADR-RES): 6.92 µM (inactive)
- GI50 (LOX IMVI): 17.4 µM (inactive)
- GI50 (SF-268): 7.31 µM (inactive)
- GI50 (OVCAR-8): 5.28 µM (inactive)
- GI50 (SK-MEL-2): 14.2 µM (inactive)
- GI50 (RXF 393): 14.8 µM (inactive)
- GI50 (RPMI-8226): 8.26 µM (inactive)
- GI50 (SK-MEL-5): 11.2 µM (inactive)
- GI50 (SNB-19): 15 µM (inactive)
- GI50 (SF-295): 13.3 µM (inactive)
- GI50 (SW-620): 13.8 µM (inactive)
- GI50 (HCT-15): 4.62 µM
- GI50 (CAKI-1): 4.86 µM (inactive)
- GI50 (MDA-MB-231): 18 µM (inactive)
- GI50 (COLO 205): 18.3 µM (inactive)
- GI50 (A549): 15.4 µM (inactive)
- GI50 (EKVX): > 50 µM (inactive)
- GI50 (CCRF-CEM): 0.869 µM (active)
- GI50 (UACC-62): 2.51 µM (inactive)
- GI50 (UACC-257): 20 µM (inactive)
